Measurements published in ChEMBL document CHEMBL4411258, “Novel natural compounds from endophytic fungi with anticancer activity” (Eur J Med Chem, 2018).
Values after ≈ are worked out from the molar mass of the structure shown.

How the values were obtained:
[1] = tested on: A549; experiment: Cytotoxicity against human A549 cells by MTT assay; format: functional, cell-based
[2] = tested on: A549; experiment: Cytotoxicity against human A549 cells after 72 hrs by MTT assay; format: functional, cell-based; conditions: A549, 72 h
[3] = tested on: Raji; experiment: Cytotoxicity against human Raji cells after 72 hrs by MTT assay; format: functional, cell-based
[4] = tested on: HepG2; experiment: Cytotoxicity against human HepG2 cells after 72 hrs by MTT assay; format: functional, cell-based; conditions: HepG2, 72 h
[5] = tested on: MCF7; experiment: Cytotoxicity against human MCF7 cells after 72 hrs by MTT assay; format: functional, cell-based; conditions: MCF7, 72 h
[6] = tested on: HL-60; experiment: Cytotoxicity against human HL60 cells after 72 hrs by MTT assay; format: functional, cell-based; conditions: HL-60, 72 h
[7] = tested on: SF-268; experiment: Cytotoxicity against human SF268 cells after 48 hrs by sulforhodamine B assay; format: functional, cell-based; conditions: Homo sapiens, SF-268, 48 h
[8] = tested on: MCF7; experiment: Cytotoxicity against human MCF7 cells after 48 hrs by sulforhodamine B assay; format: functional, cell-based; conditions: Homo sapiens, MCF7, 48 h
[9] = tested on: NCI-H460; experiment: Cytotoxicity against human NCI-H460 cells after 48 hrs by sulforhodamine B assay; format: functional, cell-based; conditions: Homo sapiens, NCI-H460, 48 h
[10] = tested on: HepG2; experiment: Cytotoxicity against human HepG2 cells after 48 hrs by sulforhodamine B assay; format: functional, cell-based; conditions: Homo sapiens, HepG2, 48 h
[11] = Cytotoxicity against human KATO III cells after 72 hrs by MTT assay; format: functional, cell-based
[12] = tested on: HepG2; experiment: Cytotoxicity against human HepG2 cells by MTT assay; format: functional, cell-based
[13] = tested on: SH-SY5Y; experiment: Cytotoxicity against human SH-SY5Y cells by MTT assay; format: functional, cell-based
[14] = tested on: L02; experiment: Cytotoxicity against human L02 cells by MTS assay; format: cell-based
[15] = tested on: MCF7; experiment: Cytotoxicity against human MCF7 cells after 48 hrs by MTT assay; format: functional, cell-based
[16] = tested on: NB-4; experiment: Cytotoxicity against human NB4 cells after 48 hrs by MTT assay; format: functional, cell-based; conditions: NB-4, 48 h
[17] = tested on: A549; experiment: Cytotoxicity against human A549 cells after 48 hrs by MTT assay; format: functional, cell-based
[18] = tested on: SH-SY5Y; experiment: Cytotoxicity against human SH-SY5Y cells after 48 hrs by MTT assay; format: functional, cell-based
[19] = tested on: PC-3; experiment: Cytotoxicity against human PC3 cells after 48 hrs by MTT assay; format: functional, cell-based; conditions: PC-3, 48 h
[20] = tested on: NCI-H446; experiment: Cytotoxicity against human NCI-H446 cells by MTS assay; format: functional, cell-based
[21] = tested on: MCF7; experiment: Cytotoxicity against human MCF7 cells by MTT assay; format: functional, cell-based
[22] = tested on: L5178Y; experiment: Cytotoxicity against mouse L5178Y cells by MTT assay; format: functional, cell-based
[23] = Homo sapiens, MCF7, 48 h, read-out: IC50
[24] = Homo sapiens, A549, 48 h, read-out: IC50

SMILES: COc1cc(O)c2c(=O)c3c(O)ccc(C(CO)C(O)CO)c3oc2c1O (configuration not stated)
- IC50 [1]: 3.6 µM

SMILES: COc1cc(=O)oc(CO)c1[C@H](O)CO
- IC50 [2]: 1 to 26.8 µg/mL (≈ 4.63 to 124 µM)
- IC50 [3]: 1 to 26.8 µg/mL (≈ 4.63 to 124 µM)
- IC50 [4]: 1 to 26.8 µg/mL (≈ 4.63 to 124 µM)
- IC50 [5]: 1 to 26.8 µg/mL
- IC50 [6]: 1 to 26.8 µg/mL (≈ 4.63 to 124 µM)

SMILES: CC[C@H](C)c1[nH]c2c(c1C)C(=O)C1=C(C2=O)[C@@H](O)[C@@H]2[C@@]3(C)CC[C@H](C(C)(C)O)O[C@@H]3CC[C@@]2(C)O1
- IC50 [7]: 6.4 to 42.6 µM
- IC50 [8]: 6.4 to 42.6 µM
- IC50 [9]: 6.4 to 42.6 µM
- IC50 [10]: 6.4 to 42.6 µM

SMILES: COc1cc(O)c2c(=O)cc(C)oc2c1[C@@H](C[C@@H](OC)C(=O)O)OC
- IC50 [11]: 16.8 µM

SMILES: COC(=O)[C@]1(Cc2ccc(O)c(CC=C(C)C)c2)OC(=O)C(O)=C1c1ccccc1
- IC50 [12]: < 10 µM
- IC50 [13]: < 10 µM
- IC50 [14]: < 10 µM

SMILES: COC(=O)[C@]1(Cc2cc(CC=C(C)C)c(O)c(OC)c2)OC(=O)C(O)=C1c1ccc(O)cc1
- IC50 [12]: 3.6 µM
- IC50 [14]: 4.2 µM

SMILES: COc1cc(OC)c2c(c1CC=C(C)C)C[C@@H](C)OC2=O
- IC50 [12]: 9.4 µM
- IC50 [13]: 8.5 µM

SMILES: CCCCC[C@@H]1CC[C@H](C)CCCCC(=O)N[C@@H](Cc2ccc(OCC=C(C)C)cc2)C(=O)O1
- IC50 [12]: 36.6 µM

SMILES: COc1ccc2c(c1C/C=C(\C)CO)C=C(CO)OC2
- IC50 [15, 23]: 2.8 to 8.8 µM
- IC50 [16]: 2.8 to 8.8 µM
- IC50 [17, 24]: 2.8 to 8.8 µM
- IC50 [18]: 2.8 to 8.8 µM
- IC50 [19]: 2.8 to 8.8 µM

SMILES: C[C@@H](O)[C@@]1(O)C(=O)N2C(C)(C)[C@@H]3Cc4cccc5c4[C@@]4(O[C@@]1(O)[C@@]2(O)[C@H]34)C(=O)N5C
- IC50 [15, 23]: 1.2 to 4.2 µM
- IC50 [16]: 1.2 to 4.2 µM
- IC50 [17, 24]: 1.2 to 4.2 µM
- IC50 [18]: 1.2 to 4.2 µM
- IC50 [19]: 1.2 to 4.2 µM

SMILES: COc1cc(O)c2c(=O)cc(C)oc2c1[C@@H]1C[C@@H](OC)C(=O)O1
- IC50 [5]: 19.3 µM
- IC50 [11]: 23.3 µM

SMILES: Cc1cc2c(c3c1C(=O)Oc1c(C)c4c(c(O)c1O3)C(=O)OC4)CO2
- IC50 [20]: 63 µM

SMILES: COc1c(O)cc2c(c1CC=C(C)C)C[C@@H](C)OC2=O
- IC50 [13]: 8.8 µM

SMILES: CC(C)=CCc1cc2c3c(c1)N(C)C(=O)[C@]31O[C@]3(O)[C@@H](O)C(=O)N4C(C)(C)[C@H](C2)[C@H]1[C@@]43O
- IC50 [15, 23]: 1.2 to 4.2 µM
- IC50 [16]: 1.2 to 4.2 µM
- IC50 [17, 24]: 1.2 to 4.2 µM
- IC50 [18]: 1.2 to 4.2 µM
- IC50 [19]: 1.2 to 4.2 µM

SMILES: C/C(=C\Cc1c(O)ccc2c1C=C(CO)OC2)CO
- IC50 [15, 23]: 2.8 to 8.8 µM
- IC50 [16]: 2.8 to 8.8 µM
- IC50 [17, 24]: 2.8 to 8.8 µM
- IC50 [18]: 2.8 to 8.8 µM
- IC50 [19]: 2.8 to 8.8 µM

SMILES: COC(=O)CCCN1C(=O)[C@]23O[C@]4(O)[C@@H](O)C(=O)N5C(C)(C)[C@H](Cc6cccc1c62)[C@H]3[C@@]54O
- IC50 [15, 23]: < 10 µM
- IC50 [16]: < 10 µM
- IC50 [18]: < 10 µM
- IC50 [19]: < 10 µM

SMILES: COc1cc2c(c3c1OC(C)(C)CC3=O)C[C@@H](C)OC2=O
- IC50 [12]: 4 µM
- IC50 [14]: 3.8 µM

SMILES: CC(=O)Cc1cc2c(CCCO)cc(O)cc2c(=O)o1
- IC50 [15, 23]: 2.8 to 8.8 µM
- IC50 [16]: 2.8 to 8.8 µM
- IC50 [17, 24]: 2.8 to 8.8 µM
- IC50 [18]: 2.8 to 8.8 µM
- IC50 [19]: 2.8 to 8.8 µM

SMILES: COc1cc(O)c2c(c1)C=C([C@H](O)[C@H](O)C(Cl)Cl)OC2O (some centres not stated)
- IC50 [12]: 39.6 µg/mL
- IC50 [21]: 17.8 µg/mL (≈ 52.8 µM)

SMILES: COC(=O)c1cccc2oc3cc(C)cc(O[C@@H]4O[C@H](CO)[C@@H](O)[C@H](O)[C@H]4O)c3c(=O)c12
- IC50 [14]: 6.8 µg/mL

SMILES: CC(=O)OCC1=C[C@@H]2[C@H](CCO)[C@@]1(C)CCCC2(C)C
- IC50 ([15]; mcf7): 19.1 µM
- IC50 ([17]; a549): 33.2 µM

SMILES: COc1cc(O)c2c(c1)C(=O)[C@@H]1[C@H](C[C@@H](O)[C@@](C)(O)[C@@H]1O)C2=O
- IC50 [22]: 3.4 µM

SMILES: CC[C@H](C)C(=O)[C@@H](C)c1c(O)c2c(c3c1SCC(=O)N3)[C@@H](O)[C@@H]1[C@@]3(C)CC[C@H](C(C)(C)O)O[C@@H]3CC[C@@]1(C)O2
- IC50 [7]: 6.4 to 42.6 µM
- IC50 [8]: 6.4 to 42.6 µM
- IC50 [9]: 6.4 to 42.6 µM
- IC50 [10]: 6.4 to 42.6 µM

SMILES: COC(=O)[C@]1(Cc2ccc(OC)c(CC=C(C)C)c2)OC(=O)C(O)=C1c1ccccc1
- IC50 [12]: < 10 µM
- IC50 [13]: < 10 µM
- IC50 [14]: < 10 µM

SMILES: Cc1cc(O)c(C(=O)c2c(C(=O)O)cc(O)c(O)c2O)c(O)c1
- IC50 [8]: 70 µM
- IC50 [10]: 60 µM

SMILES: COC(=O)[C@]1(Cc2ccc(O)c(CC=C(C)C)c2)OC(=O)C(O)=C1c1ccc(OC)cc1
- IC50 [12]: < 10 µM
- IC50 [13]: < 10 µM
- IC50 [14]: < 10 µM

SMILES: CC[C@H](C)C(=O)[C@@H](C)C1=CC(=O)C2=C(O[C@]3(C)CC[C@H]4O[C@@H](C(C)(C)O)CC[C@]4(C)C3=C2)C1=O
- IC50 [7]: 6.4 to 42.6 µM
- IC50 [8]: 6.4 to 42.6 µM
- IC50 [9]: 6.4 to 42.6 µM
- IC50 [10]: 6.4 to 42.6 µM

SMILES: COc1cc(O)c2c(c1-c1c(OC)cc(O)c3c1C(=O)C1=C(C3=O)[C@H](O)[C@@H](OC(C)=O)[C@@](C)(O)[C@@H]1O)C(=O)C1=C(C2=O)[C@H](O)[C@@H](O)[C@@](C)(O)[C@@H]1O
- IC50 [22]: 10.4 µM
